# According to US6750222B2, “Substituted phenyl derivatives” (Bayer CropScience GmbH, priority 2001, dated 2004):
# Tests used:
# [1] = tested on: Sinapis alba, Echinochloa crus-galli, Lolium multiflorum, Chrysanthemum segetum, Avena sativa, Stellaria media, Setaria spp., Abutilon theophrasti, Amaranthus …; assay: Post-emergence effect on weeds (greenhouse pot test); type: in vivo, monocotyledonous and dicotyledonous weeds; details: application rate of 2 kg and less of active substance per hectare; treated at three-leaf stage; scored visually after about 3 to 4 weeks by comparison with untreated controls
# Description: 2. Post-Emergence Effect on Weeds
# Seeds or rhizome pieces of monocotyledonous and dicotyledonous weeds were placed in sandy loam soil in plastic pots, covered with soil and grown in a greenhouse under good growth conditions. Three weeks after sowing, the test plants were treated at the three-leaf stage. The compounds according to the invention which were formulated as wettable powders or emulsion concentrates were sprayed, at various dosages, onto the green parts of the plants at an application rate of 600 to 800 l of water/ha (converted). After the test plants had remained in the greenhouse for about 3 to 4 weeks under ideal growth conditions, the effect of the preparations was scored visually by comparison with untreated controls. The agents according to the invention also have good herbicidal activity post-emergence against a broad spectrum of economically important weed grasses and broad-leafed weeds.
# [2] = tested on: Sinapis alba, Chrysanthemum segetum, Avena sativa, Stellaria media, Echinochloa crus-galli, Lolium multiflorum, Setaria spp., Abutilon theophrasti, Amaranthus …; assay: Pre-emergence effect on weeds (greenhouse pot test); type: in vivo, monocotyledonous and dicotyledonous weed plants; details: application rate of 2 kg and less of active substance per hectare; scored visually after 3 to 4 weeks by comparison with untreated controls
# From the text: 1. Pre-Emergence Effect on Weeds
# Seeds or rhizome pieces of monocotyledonous and dicotyledonous weed plants were placed in sandy loam soil in cardboard pots and covered with soil. The compounds according to the invention which were formulated in the form of wettable powders or emulsion concentrates were then applied to the surface of the soil cover in the form of aqueous suspensions or emulsions at an application rate of 600 to 800 l of water/ha (converted), in various dosages.
# After the treatment, the pots were placed in a greenhouse and kept under good growth conditions for the weeds. After the test plants had emerged, the damage to the plants or the negative effect on the emergence was scored visually after a test period of 3 to 4 weeks by comparison with untreated controls. As shown by the test results, compounds according to the invention have good herbicidal pre-emergence activity against a broad spectrum of weed grasses and broad-leafed weeds.
melting point,SMILES,herbicidal activity against harmful plants post-emergence [1],herbicidal activity against harmful plants pre-emergence [2]
139 °C,"Cn1nc(C(F)(F)F)cc1Oc1cc(C#N)cc(Oc2cc(C(F)(F)F)nn2C)c1 [Chemical Example 1, 3,5-Bis-(1-methyl-3-trifluoromethylpyrazol-5-yloxy)benzonitrile]",,
84 °C,"Cn1nc(C(F)(F)F)cc1Oc1cc(F)cc(C#N)c1 [Chemical Example 2, 3-Fluoro-5-(1-methyl-3-trifluoromethylpyrazol-5-yloxy)benzonitrile]",,
116 to 117 °C,"Cn1nc(C(F)(F)F)cc1Oc1cc(C#N)cc(-n2ccc(C(F)(F)F)n2)c1 [Chemical Example 5, 3-(1-Methyl-3-trifluoromethylpyrazol-5-yloxy)-5-(3-trifluoromethylpyrazol-1-yl)benzonitrile]",,
,Cn1nc(C(F)(F)F)cc1Oc1cc(C#N)cc(Oc2cccc(C(F)(F)F)c2)c1 [Example 62a],very good herbicidal activity,very good herbicidal activity
,N#Cc1cc(Oc2cccc(C(F)(F)F)c2)cc(Oc2cccc(C(F)(F)F)c2)c1 [Example 62b],very good herbicidal activity,very good herbicidal activity
,N#Cc1cc(Oc2ccnc(C(F)(F)F)c2)cc(Oc2ccnc(C(F)(F)F)c2)c1 [Example 73d],very good herbicidal activity,very good herbicidal activity
,N#Cc1cc(Oc2csc(C(F)(F)F)c2)cc(Oc2csc(C(F)(F)F)c2)c1 [Example 74c],very good herbicidal activity,very good herbicidal activity
,Cn1nc(C(F)(F)F)cc1Oc1cc(C#N)cc(Oc2cc(C(F)(F)F)n(C)n2)c1 [Example 75a],very good herbicidal activity,very good herbicidal activity
,Cn1nc(C(F)(F)F)cc1Oc1cc(C#N)cc(Oc2cc(C(F)(F)F)nn2C)c1 [Example 76a],very good herbicidal activity,very good herbicidal activity
,Cn1nc(C(F)(F)F)cc1Oc1cc(Oc2cc(C(F)(F)F)nn2C)cc(C(N)=O)c1 [Example 77a],very good herbicidal activity,very good herbicidal activity
,Cn1nc(C(F)(F)F)cc1Oc1cc(Oc2cc(C(F)(F)F)nn2C)cc([N+](=O)[O-])c1 [Example 397a],very good herbicidal activity,very good herbicidal activity
,Cn1nc(C(F)(F)F)cc1Oc1cc(F)cc(C#N)c1 [Example 1136a],very good herbicidal activity,very good herbicidal activity
,N#Cc1cc(F)cc(Oc2csc(C(F)(F)F)c2)c1 [Example 1136c],very good herbicidal activity,very good herbicidal activity
,Cn1nc(C(F)(F)F)cc1Oc1cc(C#N)cc(C#N)c1 [Example 1140a],very good herbicidal activity,very good herbicidal activity
,N#Cc1cc(C#N)cc(Oc2csc(C(F)(F)F)c2)c1 [Example 1140c],very good herbicidal activity,very good herbicidal activity
,N#Cc1cc(C#N)cc(Oc2ccnc(C(F)(F)F)c2)c1 [Example 1140d],very good herbicidal activity,very good herbicidal activity
,Cn1nc(C(F)(F)F)cc1Oc1cc(F)cc([N+](=O)[O-])c1 [Example 1156a],very good herbicidal activity,very good herbicidal activity
,Cn1nc(C(F)(F)F)cc1Oc1cc(C#N)cc(-n2ccc(C(F)(F)F)n2)c1 [Example 1161a],very good herbicidal activity,very good herbicidal activity
,CC(C)OCCOc1cc(C#N)cc(Oc2cc(C(F)(F)F)nn2C)c1 [Example 1169a],very good herbicidal activity,very good herbicidal activity
,CCOCCOCCOc1cc(C#N)cc(Oc2cc(C(F)(F)F)nn2C)c1 [Example 1171a],very good herbicidal activity,very good herbicidal activity
,COCCCOc1cc(C#N)cc(Oc2cc(C(F)(F)F)nn2C)c1 [Example 1177a],very good herbicidal activity,very good herbicidal activity
,Cn1nc(C(F)(F)F)cc1Oc1cc(C#N)cc(OCC2CCCO2)c1 (stereo not shown) [Example 1180a],very good herbicidal activity,very good herbicidal activity
,Cn1nc(C(F)(F)F)cc1Oc1cc(C#N)cc(OCC2COC(C)(C)O2)c1 (stereo not shown) [Example 1182a],very good herbicidal activity,very good herbicidal activity
